The text below walks through data of patent US20220046923A1, “HERBICIDAL CINNOLINIUM COMPOUNDS” (SYNGENTA CROP PROTECTION AG, priority 2018, published 2022).

Holding throughout (experiment): Post-emergence efficacy, glasshouse spray test
Holding throughout (format): in vivo

The subject of test [1] is Echinochloa crus-galli (ECHCG). As to conditions: Echinochloa crus-galli, post-emergence, 312 h; application rate 1000 g/Ha; evaluated after 13 days; read-out: Control of weed species ECHCG after post-emergence application (100=total damage to plant; 0=no damage to plant). The procedure:
(§1) Seeds of a variety of test species were sown in standard soil in pots. After cultivation for 14 days (post-emergence) under controlled conditions in a glasshouse (at 24/16° C., day/night; 14 hours light; 65% humidity), the plants were sprayed with an aqueous spray solution derived from the dissolution of the technical active ingredient formula (I) in a small amount of acetone and a special solvent and emulsifier mixture referred to as IF50 (11.12% Emulsogen EL360 TM+44.44% N-methylpyrrolidone+44.44% Dowanol DPM glycol ether), to create a 50 g/l solution which was then diluted to required concentration using 0.25% or 1% Empicol ESC70 (Sodium lauryl ether sulphate)+1% ammonium sulphate as diluent. The test plants were then grown in a glasshouse under controlled conditions (at 24/16° C., day/night; 14 hours light; 65% humidity) and watered twice daily. After 13 days the test was evaluated (100=total damage to plant; 0=no damage to plant).
(§2) Ipomoea hederacea (IPOHE), Euphorbia heterophylla (EPHHL), Chenopodium album (CHEAL), Amaranthus palmeri (AMAPA), Lolium perenne (LOLPE), Digitaria sanguinalis (DIGSA), Eleusine indica (ELEIN), Echinochloa crus-galli (ECHCG), Setaria faberi (SETFA)

In test [2] the test system is Euphorbia heterophylla (EPHHL). Particulars: Euphorbia heterophylla, post-emergence, 312 h; application rate 1000 g/Ha; evaluated after 13 days; read-out: Control of weed species EPHHL after post-emergence application (100=total damage to plant; 0=no damage to plant). On the procedure: as §1, §2
Test [3] concerns Chenopodium album (CHEAL). As to conditions: Chenopodium album, post-emergence, 312 h; application rate 1000 g/Ha; evaluated after 13 days; read-out: Control of weed species CHEAL after post-emergence application (100=total damage to plant; 0=no damage to plant). The procedure: as §1, §2
A further test has as its system Eleusine indica (ELEIN). As to conditions: Eleusine indica, post-emergence, 312 h; application rate 1000 g/Ha; evaluated after 13 days; read-out: Control of weed species ELEIN after post-emergence application (100=total damage to plant; 0=no damage to plant). On the procedure:
as §1, §2

Another test deals with Lolium perenne (LOLPE). As to conditions: Lolium perenne, post-emergence, 312 h; application rate 1000 g/Ha; evaluated after 13 days; read-out: Control of weed species LOLPE after post-emergence application (100=total damage to plant; 0=no damage to plant). On the procedure:
as §1, §2

In test [4] the test system is Amaranthus palmeri (AMAPA). Particulars: Amaranthus palmeri, post-emergence, 312 h; application rate 1000 g/Ha; evaluated after 13 days; read-out: Control of weed species AMAPA after post-emergence application (100=total damage to plant; 0=no damage to plant). The procedure:
as §1, §2

In test [5] the test system is Digitaria sanguinalis (DIGSA). Particulars: Digitaria sanguinalis, post-emergence, 312 h; application rate 1000 g/Ha; evaluated after 13 days; read-out: Control of weed species DIGSA after post-emergence application (100=total damage to plant; 0=no damage to plant). On the procedure:
as §1, §2

The subject of test [6] is Ipomoea hederacea (IPOHE). As to conditions: Ipomoea hederacea, post-emergence, 312 h; application rate 1000 g/Ha; evaluated after 13 days; read-out: Control of weed species IPOHE after post-emergence application (100=total damage to plant; 0=no damage to plant). On the procedure:
as §1, §2

Another test relates to Setaria faberi (SETFA). As to conditions: Setaria faberi, post-emergence, 312 h; application rate 1000 g/Ha; evaluated after 13 days; read-out: Control of weed species SETFA after post-emergence application (100=total damage to plant; 0=no damage to plant). On the procedure:
as §1, §2

Each structure is given as a SMILES string.

Regarding `COC(=O)C[n+]1ccc2ccccc2n1` [Compound A1, methyl 2-cinnolin-2-ium-2-ylacetate bromide], the pest or weed control at 1000 g/ha in test [1] worked out at 70%; in test [2], 90%; in [3] it was 60%; with Eleusine indica (ELEIN) it was 100%; in the test with Lolium perenne (LOLPE) it was 40%; in test [4], 100%. For the same molecule, the pest or weed control at 1000 g/ha in test [5] stood at 70%; in test [6], 50%; with Setaria faberi (SETFA), 60%.

`O=C([O-])C[n+]1ccc2ccccc2n1` [Compound A2, 2-cinnolin-2-ium-2-ylacetate]: the pest or weed control at 1000 g/ha was 100% in test [1]; 90% in test [2]; 80% in test [3]; 100% in the test with Eleusine indica (ELEIN); 20% in the test with Lolium perenne (LOLPE); 100% in test [4]. In addition, the pest or weed control at 1000 g/ha in [5] was determined as 100%; in test [6], 40%; in the test with Setaria faberi (SETFA), 80%.

Take `COC(=O)C[n+]1cc(C)c2cc(C)cc(C)c2n1` [Compound A3]: the pest or weed control at 1000 g/ha in [1] worked out at 0%; in test [2], 20%; in test [3] it was 10%; with Eleusine indica (ELEIN), 0%; in the test on Lolium perenne (LOLPE) it was 20%; in [4], 20%. For the same molecule, the pest or weed control at 1000 g/ha in test [5] was 0%; in test [6] it was 10%; with Setaria faberi (SETFA), 10%.

As for `Cc1cc(C)c2n[n+](CC(=O)[O-])cc(C)c2c1` [Compound A4], the pest or weed control at 1000 g/ha turned out to be 10% in test [1]; 40% in test [2]; 10% in test [3]; 20% with Eleusine indica (ELEIN); 10% in the test on Lolium perenne (LOLPE); 40% in [4]. Moreover, the figures for the pest or weed control at 1000 g/ha (in test [5]; in test [6]; with Setaria faberi (SETFA)) were 10%, 30% and 0%, respectively.

As to `CONC(=O)C[n+]1cc(C)c2cc(C)cc(C)c2n1` [Compound A5], the pest or weed control at 1000 g/ha in [1] turned out to be 0%; in [2], 30%; in test [3] it was 20%; in the test with Eleusine indica (ELEIN), 10%; in the test on Lolium perenne (LOLPE), 0%; in [4] it was 30%. The pest or weed control at 1000 g/ha is 10% in test [5], 20% in test [6] and 10% with Setaria faberi (SETFA).

As to `Cc1cc(C)c2n[n+](CC(=O)OC(C)C)cc(C)c2c1` [Compound A6, isopropyl 2-(4,6,8-trimethylcinnolin-2-ium-2-yl)acetate chloride], the pest or weed control at 1000 g/ha in test [1] amounted to 10%; in test [2], 30%; in [3], 20%; in the test with Eleusine indica (ELEIN), 30%; in the test with Lolium perenne (LOLPE), 10%; in test [4], 40%. The pest or weed control at 1000 g/ha (in [5]; in [6]; in the test with Setaria faberi (SETFA)) was 10% in each case.

In the case of `COC(=O)C[n+]1cc(C)c2cccc(C)c2n1` [Compound A7], the pest or weed control at 1000 g/ha in [1] worked out at 10%; in test [2] it was 20%; in test [3] it was 30%; with Eleusine indica (ELEIN) it was 20%; with Lolium perenne (LOLPE), 20%; in test [4], 30%. The figures for the pest or weed control at 1000 g/ha (in test [5]; in [6]; in the test with Setaria faberi (SETFA)) were 0%, 10% and 10%, respectively.

As to `Cc1c[n+](CC(=O)[O-])nc2c(C)cccc12` [Compound A8], the pest or weed control at 1000 g/ha in test [1] is 20%; in [2], 40%; in [3] it was 60%; in the test with Eleusine indica (ELEIN) it was 50%; with Lolium perenne (LOLPE), 10%; in test [4], 50%. The pest or weed control at 1000 g/ha is 30% in test [5], 30% in [6] and 10% in the test on Setaria faberi (SETFA).

In the case of `COC(=O)C[n+]1cc(C)c2cc(C)ccc2n1` [Compound A9], the pest or weed control at 1000 g/ha in test [1] stood at 10%; in test [2], 50%; in test [3] it was 60%; in the test on Eleusine indica (ELEIN) it was 70%; with Lolium perenne (LOLPE), 10%; in test [4], 10%. The pest or weed control at 1000 g/ha in [5] is 40%; in [6], 20%; in the test with Setaria faberi (SETFA) it was 10%.

Turning to `Cc1ccc2n[n+](CC(=O)[O-])cc(C)c2c1` [Compound A10], the pest or weed control at 1000 g/ha in [1] was 40%; in test [2], 40%; in test [3], 30%; in the test on Eleusine indica (ELEIN), 70%; in the test with Lolium perenne (LOLPE) it was 10%; in test [4], 30%. Also, the figures for the pest or weed control at 1000 g/ha (in test [5]; in test [6]; with Setaria faberi (SETFA)) were 50%, 40% and 40%, respectively.

Regarding `Cc1c[n+](CCS(=O)(=O)[O-])nc2ccccc12` [Compound A11], the pest or weed control at 1000 g/ha was 60% in test [1]; 80% in test [2]; 100% in test [3]; 80% with Eleusine indica (ELEIN); 0% with Lolium perenne (LOLPE); 100% in test [4]. Besides, the figures for the pest or weed control at 1000 g/ha (in test [5]; in test [6]; in the test on Setaria faberi (SETFA)) were 40%, 80% and 70%, respectively.

`N[C@H](CC[n+]1ccc2ccccc2n1)C(=O)O` [Compound A12, [(1R)-1-carboxy-3-cinnolin-2-ium-2-yl-propyl]ammonium 2,2,2-trifluoroacetate]: the pest or weed control at 1000 g/ha in test [1] turned out to be 40%; in test [2], 50%; in test [3] it was 70%; in the test with Eleusine indica (ELEIN), 90%; in the test on Lolium perenne (LOLPE) it was 40%; in test [4], 80%. The pest or weed control at 1000 g/ha in [5] turned out to be 80%; in test [6], 60%; in the test with Setaria faberi (SETFA) it was 50%.

`COC(=O)c1cccc(C[n+]2ccc3ccccc3n2)c1` [Compound A90]: the pest or weed control at 1000 g/ha in test [1] stood at 10%; in [2] it was 30%; in the test with Eleusine indica (ELEIN), 20%; in the test on Lolium perenne (LOLPE), 0%; in test [4], 20%; in test [5], 10%. For the same molecule, the results for the pest or weed control at 1000 g/ha (in test [6]; in the test with Setaria faberi (SETFA)) were 10% and 0%, respectively.
